Reference: BindingDB's records for doi:10.3109/14756366.2010.486794 (University of Lisbon, 2011)

Target: T1, Neutrophil elastase (Homo sapiens, UniProt P08246)
T1 sequence (P08246 whole entry): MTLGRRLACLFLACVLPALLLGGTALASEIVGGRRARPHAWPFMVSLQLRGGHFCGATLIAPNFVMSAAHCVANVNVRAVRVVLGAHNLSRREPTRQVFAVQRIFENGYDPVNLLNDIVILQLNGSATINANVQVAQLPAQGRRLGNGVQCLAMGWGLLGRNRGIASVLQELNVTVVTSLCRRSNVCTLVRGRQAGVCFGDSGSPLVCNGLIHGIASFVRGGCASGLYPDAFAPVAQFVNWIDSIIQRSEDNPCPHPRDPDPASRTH
Assay: Enzyme Kinetic Assay
Conditions: 25 °C
Protocol: The inhibition of the HLE was studied at 25°C by continuously monitoring the absorbance at 410 nm for 20 min of a solution prepared by mixing 10 μL of HLE stock solution (2 μM in 0.05M acetate buffer, pH 5.5) with a solution containing 10 μL of 5 in DMSO, 20 μL of MeOSuc-Ala-Ala-Pro-Val-p-NA (50 mM in DMSO) and 960 μL of 0.1M pH 7.2 HEPES buffer. Control assays, in which the inhibitor was omitted, ran linearly.

Ki: 0.63 nM
Structure (SMILES): CCC1(CC)C(=O)N(c2ccc(CS(=O)(=O)c3ccccc3)cc2)C1=O [4-oxo-β-lactam (3)]
